In the METLIN SMRT retention time set (Domingo-Almenara et al. 2019):

Assay: gradient 5% acetonitrile 3 min, to 50% in 2 min, to 85% in 15 min, held 3 min, 100 µL/min
Details: column: Zorbax Extend-C18 2.1 x 50 mm; eluents: water / acetonitrile, 0.1% formic acid
Method in brief: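 Mixtures of ~100 pure standards were chromatographed on a Zorbax Extend-C18 column (2.1 × 50 mm, 1.8 μm) at 100 μL/min using water and acetonitrile, each with 0.1% formic acid. Detection used a quadrupole time-of-flight mass spectrometer in positive and negative ionization mode, and data collection spanned 3 months. Retention time was obtained from adduct peaks picked computationally and each checked manually.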

RP-LC retention time | SMILES
909 s | O=C(Nc1nc2ccccc2s1)C1CCCN(c2ncnc3c2nc2n3CCCCC2)C1 (centres undefined)
562 s | CCOC(=O)C1CCN(CC(O)COC2CCCC2)CC1 (centres undefined)
795 s | Cn1ccc2ccn(CC(=O)Nc3ccc(Br)cc3)c(=O)c21
717 s | O=C(NCC1CC(=O)N(c2ccc3c(c2)OCO3)C1)Nc1ccccc1C(F)(F)F (centres undefined)
608 s | Cc1cc(C)n(CCNC(=O)C(=O)Nc2cc(C)on2)n1
701 s | COc1ccc(Br)cc1S(=O)(=O)Nc1cc(-c2cn3ccccc3n2)ccc1C
1050 s | Cc1cc(C)cc(NC(=O)Cn2c(C)nc3c(sc4nc(-c5ccccc5)ccc43)c2=O)c1
891 s | O=C(NC1CCCCC1)c1cc2n(n1)CCCN(Cc1ccccc1)C2=O
777 s | O=C1NC2(CCN(C(=O)c3ccc(F)c(F)c3)CC2)Nc2c(Cl)cccc21
630 s | Cc1ccc(C)c(C(=O)NCc2ccc(-n3ccnc3)cc2)c1
726 s | Cc1ccc2nc(-c3ccccc3)c(Nc3ccccc3C)n2c1
768 s | Cc1noc(C2CN(C(=O)Nc3ccc(C)c(C)c3)CC23CCOCC3)n1 (centres undefined)
1150 s | CC(/C=C1\SC(=S)N(CC(=O)O)C1=O)=C\c1ccccc1
670 s | CC(C)Cn1c(=O)c(C(=O)NC2CCN(Cc3ccccc3)CC2)nc2cccnc21
588 s | CN(C)c1ncccc1C(=O)NC1CCCCC1
949 s | Cc1nc(-c2ccc(N3CCN(C(=O)COc4ccc(Cl)cc4)CC3)nc2)sc1C
734 s | O=C(CCn1cnc2cc(-c3noc(CCc4c[nH]c5ccccc45)n3)ccc21)N1CCCC1
852 s | COc1cc(-c2nnc(-c3cccc(S(=O)(=O)N4CCOCC4)c3)o2)cc(OC)c1OC
630 s | CCOC(=O)N1CCN(c2cc(C(=O)O)c3cc(NC(=O)c4ccc(OC)cc4)ccc3n2)CC1
1290 s | CCc1ccc(S(=O)(=O)N2CCCC2c2nc(-c3ccc(Cl)cc3)no2)cc1 (centres undefined)
1150 s | COc1cccc(-c2nc(C3CCN(S(=O)(=O)c4ccc(C)cc4)CC3)no2)c1
705 s | CCn1c(C(=O)NCCCN2CCOCC2)cc2c(-c3cccs3)nn(-c3ccccc3)c21

RP-LC retention time | SMILES
1120 s | CSc1cccc(NC(=O)c2cn(C)nc2S(=O)(=O)N2CCC(C)CC2)c1
1020 s | O=c1ccc(-c2ccc(F)cc2)nn1CCc1nc(-c2ccccc2Cl)no1
934 s | Cc1cc(C)cc(Nc2nc(C)cc(=O)n2CC(=O)Nc2cccc(Br)c2)c1
610 s | COCC(=O)N1CCC2(CC1)NC(=O)c1ccccc1O2
705 s | CCOC(=O)C1CCN(c2ncc(C(=O)Nc3ccccc3)c(N)n2)CC1
1020 s | Cc1ccc(S(=O)(=O)N2CCCC2C(=O)Nc2ccc(Br)cc2)cc1 (centres undefined)
813 s | O=C(NCCc1ccco1)C1CCN(Cc2cc3ccccc3n2Cc2cccc(Cl)c2)CC1
715 s | Clc1cccc(-c2nc3ccccn3c2Nc2ccc3c(c2)OCCO3)c1
580 s | Cc1ccn2cc(CCNC(=O)c3ccc(C(F)(F)F)cc3)nc2c1
949 s | O=S(=O)(NCC(O)C1CCCCC1)c1ccc(OC(F)(F)F)cc1 (centres undefined)
731 s | O=C(NCc1ccccc1F)C1CCc2nc(N3CCOCC3)ncc2C1 (centres undefined)
874 s | Cc1cccc(N2CCN(C(=O)C3CCCN(c4cc(=O)n(C)c(=O)n4C)C3)CC2)c1C (centres undefined)
570 s | COc1ccc(NC(=O)c2cn3c(n2)CCCC3)cc1OC
776 s | O=C(c1ccc[nH]1)N1CCC2(CC1)N=C(c1ccc(Cl)cc1)NO2
837 s | CCCSc1nc2c(c(=O)n(C)c(=O)n2C)n1C
819 s | CCN1C(=O)c2c(C(=O)NCCc3cccc(C)c3)ncn2CC1(C)C(=O)NC1CCCC1 (centres undefined)
932 s | COc1ccc(C2CCCCCN2S(C)(=O)=O)cc1 (centres undefined)
929 s | Cc1ccc(C)c(NC(=O)N2CCC(n3cnc4ccc(Cl)cc4c3=O)CC2)c1
605 s | COc1ccc(OC)c(NC(=O)N(C)Cc2nc3cc(C(=O)N(C)C)ccc3n2C)c1
598 s | O=C(c1cccn1-c1nnc(N2CCCC2)s1)N1CCN(c2ccccn2)CC1
730 s | COCCCNC(=O)C1CCN(S(C)(=O)=O)c2cc(Cl)ccc2O1 (centres undefined)
1040 s | CC(=O)OCC1OC(N2CCC(=O)NC2=O)C(OC(C)=O)C1OC(C)=O (centres undefined)

RP-LC retention time | SMILES
844 s | Cc1ccsc1C(=O)NCCc1cn(CC(C)C)c2ncccc12
770 s | O=C(NC1CCCCC1)c1ccc(CN2C(=O)C3CCCN3C(=O)c3ccccc32)cc1 (centres undefined)
912 s | COc1ccc(C)cc1NC(=O)Cn1nc2cc(C)nc(-c3ccc(F)cc3)n2c1=O
644 s | COCCN1CN=C(Nc2nc(C)c3cccc(C)c3n2)NC1
729 s | O=C(c1ccco1)N1c2ccccc2CC1c1nnc(C2CCOCC2)o1 (centres undefined)
921 s | CCc1ccc(NC(=O)N2CCC(n3cnc4ccc(Cl)cc4c3=O)CC2)cc1
819 s | Cc1ccc2nc3sc(C(=O)NCC4COc5ccccc5O4)cc3c(=O)n2c1 (centres undefined)
1140 s | CC(C)(C)c1cc(C(=O)NCc2ccccc2)nc2ccnn12
677 s | CCOC(=O)C1CCN(C(=O)NCc2cccs2)CC1
1020 s | Cc1csc(-c2cc(S(=O)(=O)N3CCCCC3)cn2CC(=O)N2CCCCC2)n1
1230 s | Cc1ccccc1-c1noc(C2CCCN2S(=O)(=O)c2ccc(Br)s2)n1 (centres undefined)
630 s | Cc1c(NC(=O)Cc2csc(NC(=O)C(C)(C)C)n2)c(=O)n(-c2ccccc2)n1C
1110 s | CCc1ccc(NC(=O)C2CCCN(S(=O)(=O)c3cc(-c4noc(CC)n4)cs3)C2)cc1 (centres undefined)
741 s | O=C(Cc1cccc(Cl)c1)NC1CCN(c2cc(-c3ccc(F)cc3)[nH]n2)C1 (centres undefined)
855 s | Cc1ccc(-c2ccc(N3CCCC(C(=O)NCCC4=CCCCC4)C3)nn2)cc1 (centres undefined)
836 s | CCCN1C(=O)c2cc(C(=O)NCc3ccccc3F)nn2CC1(C)C(=O)NC1CCCC1 (centres undefined)
823 s | Cc1ccc(CNC(=O)C2(C)Cn3nc(C(=O)NCc4ccccc4C)cc3C(=O)N2C)cc1 (centres undefined)
577 s | Cc1nnc(NC(=O)CSc2cc(N3CCCC3)ncn2)s1
595 s | CN(C)C(=O)CN1CCN(c2ccc(NC(=O)C(C)(C)C)c(C(=O)O)c2)CC1
643 s | COc1ccc(CNC(=O)C(=O)NCC(c2ccc3c(c2)OCO3)N2CCOCC2)cc1 (centres undefined)
850 s | CC1=C(c2ccc(Cl)cc2)S(=O)(=O)N=C1N1CCCN(C(=O)C2CCC2)CC1
594 s | COc1ccc(N2CCN(C(=O)C3CC(=O)N(c4ccc(C)c(C)c4)C3)CC2)nn1 (centres undefined)

RP-LC retention time | SMILES
638 s | O=C(NCc1ccccn1)C1CCN(S(=O)(=O)c2cc(C(=O)N3CCCCCC3)cs2)CC1
1390 s | CC(=O)N1c2nc(-c3ccccc3)nn2C2(CCCCC2)[C@@H]2CCCC[C@@H]21
1100 s | CC(C)NC(=O)C1Cc2cc(C(F)(F)F)ccc2N2CCN(c3ccccc3)CC12 (centres undefined)
668 s | O=C(Nc1ccc(F)cc1F)N1CCCC(Cn2c(C3CC3)nc3cccnc32)C1 (centres undefined)
713 s | Cn1c(C(=O)NCC2CCCO2)cc2c(=O)oc3ccccc3c21 (centres undefined)
738 s | CCc1nnc2c(=O)n(CC(=O)N3CCN(c4ccccc4)CC3)c3cccnc3n12
605 s | O=C(CN(CC1CCCO1)C(=O)c1ccc(Cl)cc1)N1CCNCC1 (centres undefined)
963 s | COc1ccc(-c2csc(NC(=O)c3ccc4c(c3)OCCO4)n2)cc1OC
780 s | O=C(CC1CCCC1)N1CCCC1c1nc(C2CCOCC2)no1 (centres undefined)
1240 s | COc1ccc(OC)c(NC(=O)c2cc3c(=O)n(CC(C)C)c4ccccc4n3n2)c1
754 s | CC(C)c1noc(-c2cccnc2N2CCCN(Cc3ccc(F)cc3Cl)CC2)n1
650 s | CCCNC(=O)C1CCN(Cc2cn(C)c3ccc(Cl)cc23)CC1
872 s | O=C(CSC1CCc2ccccc2NC1=O)Nc1cccc(Br)c1 (centres undefined)
840 s | CCc1cccc(NC(=O)Cn2nc(C(=O)N3CCOCC3)c3ccccc32)c1
771 s | O=C(c1ccccc1F)N1CCN(c2cc(-c3cccs3)[nH]n2)CC1
572 s | Cc1nnc(C2CC3(CCN(CCCO)CC3)CN2CCc2ccccc2)o1 (centres undefined)
612 s | COc1ccc(Cl)c2c(=O)c3c([nH]c12)CCN(CC(=O)NCc1ccc(F)cc1)C3
803 s | Cc1cccc(C)c1OCC(=O)c1ccc2c(c1)N(CCCC(=O)NCC1CCCO1)C(=O)CO2 (centres undefined)
732 s | CC1=C(c2ccc(C)cc2)S(=O)(=O)N=C1N1CCCN(C(=O)C2CCOC2)CC1 (centres undefined)
530 s | COc1ccc(S(=O)Cc2ccc(C(=O)NCCN(C)C)o2)cc1 (centres undefined)
646 s | O=C(NCc1ccc(C(F)(F)F)cc1)c1cn2c(n1)CCCC2

SMILES | RP-LC retention time
C[C@H](N)C(=O)N[C@@H](C)C(=O)N[C@@H](Cc1ccccc1)C(=O)CCl | 638 s
COc1ccc(C(=O)N2[C@H]3CC[C@@H]2c2cnc(-c4ccc(F)cc4)nc2C3)cn1 | 892 s
